The target of the test is T1, LTD4 induced contraction of guinea pig tracheal spiral strips (Cavia porcellus, UniProt Q2NNR5).
T1 construct: Guinea pig (adult male albino Hartley strain) tracheal spiral strips; from tissue; host or cells: guinea pig trachea (adult male albino Hartley strain), spiral strips
T1 sequence (Q2NNR5 1-340): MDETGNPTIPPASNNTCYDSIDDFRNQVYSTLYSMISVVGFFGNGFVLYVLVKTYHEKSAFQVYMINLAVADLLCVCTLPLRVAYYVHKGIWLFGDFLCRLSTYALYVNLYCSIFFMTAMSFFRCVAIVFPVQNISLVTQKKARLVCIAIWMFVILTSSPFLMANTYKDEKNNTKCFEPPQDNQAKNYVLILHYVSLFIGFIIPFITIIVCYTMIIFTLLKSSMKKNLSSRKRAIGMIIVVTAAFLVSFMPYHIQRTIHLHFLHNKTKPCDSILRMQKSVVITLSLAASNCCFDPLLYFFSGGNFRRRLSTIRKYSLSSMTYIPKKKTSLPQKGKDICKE
The test can be described thus: Inhibition of leukotriene (LTD4) induced contraction of guinea pig tracheal tissues in vitro. To be noted: LTD4 concentration-response on guinea pig tracheal strips, 30 minutes pretreatment with test compound; KB from EC30 shift; current average where tested more than once; read-out: In Vitro Log K8 (-log KB, leukotriene antagonist activity) (converted). The test is classed as cell-based. On the procedure:
The leukotriene antagonist activity of the compounds of this invention is measured by the ability of the compounds to inhibit the leukotriene induced contraction of guinea pig tracheal tissues in vitro. The following methodology was employed:
In vitro: Guinea pig (adult male albino Hartley strain) tracheal spiral strips of approximate dimensions 2 to 3 mm cross-sectional width an 3.5 cm length were bathed in modified Krebs buffer in jacketed 10 ml tissue bath and continuously aerated with 95% O2 /5% CO2. The tissues were connected via silk suture to force displacement transducers for recording isometric tension. The tissues were equilibrated for 1 hr., pretreated for 15 minutes with meclofenamic acid […] to remove intrinsic prostaglandin responses, and then pretreated for an additional 30 minutes with either the test compound or vehicle control. A cumulative concentration-response curve for LTD4 on triplicate tissues was generated by successive increases in the bath concentration of the LTD4. In order to minimize intertissue variability, the percentage of the maximum response obtained to a reference agonist, carbachol […].
Calculations: The averages of the triplicate LTD4 concentration-response curves both in the presence and absence of the test compound were plotted on log graph paper. The concentration of LTD4 needed to elicit 30% of the contraction elicited by carbachol was measured and defined as the EC30. The -log KB value for the test compound was determined by the following equations: [formula] 2. KB =concentration of test compound/(X-1)
The antagonist activity of representative compounds of this invention is tabulated below in Table I (other data appears in the preparative examples). The -log KB values were calculated from the above test protocol. Where compounds were tested more than once, the -log KB values given herein represent the current average data.

Counter-ions that a name gives are not always drawn.

For the compound `CCCCCCCCCCCCc1ccccc1C(Sc1nnnn1CCCC(=O)O)C(=O)O` (stereo not drawn) [Example 3, 2-(2-Dodecylphenyl)-2-[[1-(3-carboxypropyl)-5-tetrazolyl]thio]acetic acid], the antagonist equilibrium constant (Kb) (as a rule, the affinity of an antagonist, worked out from how it opposes an agonist) is 39.8 nM.

Consider `CCCCCCCCCCCCc1ccccc1C(Sc1nnnn1CS(=O)(=O)O)C(=O)O` (stereo not drawn) [Example 4, 2-(2-Dodecylphenyl)-2-[(1-sulfomethyl-5-tetrazolyl)thio]acetic acid ammonium salt hydrate], for which the antagonist equilibrium constant (Kb) was 398 nM.

Turning to `CCCCCCCCCCCCc1ccccc1C(CC(=O)O)Sc1nnnn1CCCC(=O)O` (stereo not drawn) [Example 6, 3-(2-dodecylphenyl)-3-[[1-(3-carboxypropyl)-5-tetrazolyl]thio]propanoicacid], the Kb was 251 nM.

Take `O=C(O)CC(Sc1nnnn1CC(=O)O)c1ccccc1CCCCCCCCc1ccccc1` (stereo not drawn) [Example 7, 3-[2-(8-Phenyloctyl)phenyl]-3-[(1-carboxymethyl-5-tetrazolyl)thio]propanoic acid]: the antagonist dissociation constant (Kb) is 501 nM.

As to `O=C(O)CCCn1nnnc1SC(CC(=O)O)c1ccccc1CCCCCCCCc1ccccc1` (stereo not drawn) [Example 8, 3-[2-(8-Phenyloctyl)phenyl]-3-[[1-(3-carboxypropyl)-5-tetrazolyl]thio]propanoic acid], the Kb is 1000 nM.

On to `CCCCCCCCCCCCc1ccccc1C(SCCc1nnn[nH]1)C(=O)O` (stereo not drawn) [Example 12, 2-(2-dodecylphenyl)-2-[2-(tetrazol-5-yl)ethylthio]acetic acid], for which the antagonist dissociation constant (Kb) is 316 nM.

In the case of `O=C(O)CCCn1nnnc1SC(c1ccccc1CCCCCCCCc1ccccc1)C(O)C(=O)O` (stereo not drawn) [Example 13, 3-[2-(8-phenyloctyl)phenyl]-3-[[1-(3-carboxypropyl)-5-tetrazolyl]thio]-2-hydroxypropanoic acid], the antagonist equilibrium constant (Kb) is 100 nM.

With `O=C(O)Cn1nnnc1SC(c1ccccc1CCCCCCCCc1ccccc1)C(O)C(=O)O` (stereo not drawn) [Example 14, 3-[2-(8-phenyloctyl)phenyl]-3-[(1-carboxymethyl-5-tetrazolyl)thio]-2-hydroxypropanoic acid], the Kb was 100 nM.

`CCCCCCCCCCCCc1ccccc1C(Sc1nc(C)c(C(=O)O)s1)C(=O)O` (stereo not drawn) [Example 15, 2-(2-Dodecylphenyl)-2-(5-carboxy-4-methyl-2-thiazolylthio)acetic acid]: the Kb is 200 nM.

The values above are taken from patent US5135938A, “Leukotriene antagonists” (SmithKline Beecham Corporation, priority 1990, dated 1992).
